Results from patent US20210393520A1, “TREATMENT OF GRAM-NEGATIVE FOLLICULITIS OR AN INFLAMMATION THEREOF WITH BESIFLOXACIN” (VYOME THERAPEUTICS LIMITED, priority 2018, published 2021).
≈ marks a conversion by molar mass, not a printed value.

Key:
Acinetobacter sp. 488 = experiment: MIC, micro broth dilution in Muller Hinton broth (CLSI), Table 1B; assay type: cell-based; conditions: read-out: Minimum Inhibitory Concentration
Description: (§1) Besifloxacin HCL was tested against ampicillin and cefotaxime (3rd generation cephalosporin) susceptible and resistant gram-negative bacterial strains involved in GNF (gram negative folliculitis) by broth dilution method as per the Clinical & Laboratory Standards Institutes (CLSI) guidelines. MIC assay was performed in 96 well plates by micro broth dilution method, in 96 well plates, all the wells were added with 100 μl of sterilized Muller Hinton broth No: 2 cation broth (HiMedia, India). The initial stock of test compounds (1 mg/ml) were prepared in dimethyl sulfoxide (DMSO) and further dilutions were made in culture broth to get the desirable concentration. Then 100 μl of broth containing test compounds were initially added to the first column's wells and then serial dilution was performed up to well of 10th column. Wells of 11th and 12th column served as a positive and negative control respectively. Finally, 100 μl of inoculum (0.5 McFarland equal bacterial suspension was 100 times diluted in culture broth) was added to all the wells. Plates were incubated at 37° C. for 18-24 hrs. After incubation, MIC of each test compound was determined by observing the lowest concentration of test compound that has no visual growth compared to growth control. Minimum inhibitory concentration of besifloxacin, ampicillin and cefotaxime against gram negative bacterial strains were shown in Table 1.

Enterobacter sp. 1 = experiment: as above; assay type: cell-based; conditions: read-out: Minimum Inhibitory Concentration
Description: as §1

Enterobacter sp. 2 = experiment: as above; assay type: cell-based; conditions: read-out: Minimum Inhibitory Concentration
Description: as §1

Enterobacter sp. 523 = experiment: as above; assay type: cell-based; conditions: read-out: Minimum Inhibitory Concentration
Description: as §1

Enterobacter sp. 532 = experiment: as above; assay type: cell-based; conditions: read-out: Minimum Inhibitory Concentration
Description: as §1

Escherichia coli 591 = experiment: as above; assay type: cell-based; conditions: read-out: Minimum Inhibitory Concentration
Description: as §1

Escherichia coli 592 = experiment: as above; assay type: cell-based; conditions: read-out: Minimum Inhibitory Concentration
Description: as §1

Klebsiella sp. 498 = experiment: as above; assay type: cell-based; conditions: read-out: Minimum Inhibitory Concentration
Description: as §1

Klebsiella sp. 512 = experiment: as above; assay type: cell-based; conditions: read-out: Minimum Inhibitory Concentration
Description: as §1

Pseudomonas sp. 537 = experiment: as above; assay type: cell-based; conditions: read-out: Minimum Inhibitory Concentration
Description: as §1

Pseudomonas sp. 556 = experiment: as above; assay type: cell-based; conditions: read-out: Minimum Inhibitory Concentration
Description: as §1

P. acnes V3-1 = experiment: MIC against bacteria isolated from acne lesions, Table 2; assay type: cell-based, Propionibacterium acnes; conditions: Cutibacterium acnes, V31; P. acnes V3-1, isolated from acne lesions; read-out: Minimum Inhibitory Concentration
Description: (§2) MIC of besifloxacin and other antibiotics molecules were determined by micro broth dilution method as per the Clinical and Laboratory Standards Institute (CLSI) guideline. MIC assay is the determinant of the inherent anti-microbial potency of a particular molecule. For preparing inoculum, bacterial strains were cultured in Brain Heart Infusion Agar (BHIA) at 37° C. for 24 hours. […] For bacterial inoculum, bacterial culture turbidity was adjusted to 0.1 OD at 600 nm in UV-Visual spectrophotometer (approximately 1.5×10^8 cells/ml) and further diluted (100 times with sterile BHI broth). Diluted bacterial suspension (100 μl) was added to each well except sterility control wells (column 12 of 96 well plate). Column 11 of 96 well plate was used as growth control and vehicle control. The plates were incubated at 37° C. for 24 h. The MIC of the test compounds were determined by observing the lowest concentration of test compound that prevented the visual bacterial growth.
(§3) Different skin resident bacteria were isolated from acne lesions of moderate to severe acne patients.

[1] = system: Bacillus megaterium M1-2.; experiment: as above; assay type: cell-based; conditions: Priestia megaterium, M12., read-out: Minimum Inhibitory Concentration
Description: as §2, §3

[2] = system: Dermatobacter hominis S11-2; experiment: as above; assay type: cell-based; conditions: S112; Dermatobacter hominis S11-2, isolated from acne lesions; read-out: Minimum Inhibitory Concentration
Description: as §2, §3

[3] = system: Enterobacter aerogenes M2-1; experiment: as above; assay type: cell-based; conditions: Klebsiella aerogenes, M21; Enterobacter aerogenes M2-1, isolated from acne lesions; read-out: Minimum Inhibitory Concentration
Description: as §2, §3

K. pneumoniae S6-1 = experiment: as above; assay type: cell-based; conditions: Klebsiella pneumoniae, S61; K. pneumoniae S6-1, isolated from acne lesions; read-out: Minimum Inhibitory Concentration
Description: as §2, §3

Kocuria sp. S18-1 = experiment: as above; assay type: cell-based; conditions: SP.S181; Kocuria sp. S18-1, isolated from acne lesions; read-out: Minimum Inhibitory Concentration
Description: as §2, §3

Microbacterium sp. S20-2 = experiment: as above; assay type: cell-based; conditions: Microbacterium sp. S20-2, isolated from acne lesions
Description: as §2, §3

P. avidum S3-1 = experiment: as above; assay type: cell-based; conditions: Cutibacterium avidum, S31; P. avidum S3-1, isolated from acne lesions; read-out: Minimum Inhibitory Concentration
Description: as §2, §3

S. epidermidis S1-1 = experiment: as above; assay type: cell-based; conditions: Staphylococcus epidermidis, S11; S. epidermidis S1-1, isolated from acne lesions; read-out: Minimum Inhibitory Concentration
Description: as §2, §3

[4] = system: Staphylococcus haemolyticus M1-1; experiment: as above; assay type: cell-based; conditions: M11; Staphylococcus haemolyticus M1-1, isolated from acne lesions; read-out: Minimum Inhibitory Concentration
Description: as §2, §3

Blastococcus sp. S21A-2 = assay type: cell-based; conditions: Blastococcus sp. S21A-2, isolated from acne lesions
Description: as §2, §3

Row | Compound | MIC (P. acnes V3-1) | MIC [1] | MIC [2] | MIC [3] | MIC (K. pneumoniae S6-1) | MIC (Kocuria sp. S18-1) | Minimum Inhibitory Concentration (Microbacterium sp. S20-2) | MIC (P. avidum S3-1) | MIC (S. epidermidis S1-1) | MIC [4] | Minimum Inhibitory Concentration (Blastococcus sp. S21A-2) | other results
1 | CO/N=C(\C(=O)N[C@@H]1C(=O)N2C(C(=O)O)=C(COC(C)=O)CS[C@H]12)c1csc(N)n1 [Cefotaxime] | – | – | – | – | – | – | – | – | – | – | – | MIC (Acinetobacter sp. 488): > 128 µg/mL; MIC (Enterobacter sp. 1): 128 µg/mL (≈ 281 µM); MIC (Enterobacter sp. 2): 0.5 µg/mL (≈ 1.1 µM); MIC (Enterobacter sp. 523): 128 µg/mL (≈ 281 µM); MIC (Enterobacter sp. 532): 64 µg/mL (≈ 141 µM); MIC (Escherichia coli 591): < 0.25 µg/mL; MIC (Escherichia coli 592): 128 µg/mL (≈ 281 µM); MIC (Klebsiella sp. 498): 64 to 128 µg/mL (≈ 141 to 281 µM); MIC (Klebsiella sp. 512): < 0.25 µg/mL; MIC (Pseudomonas sp. 537): 16 µg/mL (≈ 35.1 µM); MIC (Pseudomonas sp. 556): 4 µg/mL (≈ 8.78 µM)
2 | CC[C@H]1OC(=O)[C@H](C)[C@@H](O[C@H]2C[C@@](C)(OC)[C@@H](O)[C@H](C)O2)[C@H](C)[C@@H](O[C@@H]2O[C@H](C)C[C@H](N(C)C)[C@H]2O)[C@](C)(O)C[C@@H](C)C(=O)[C@H](C)[C@@H](O)[C@]1(C)O [Erythromycin] | > 150 µg/mL | 0.25 µg/mL (≈ 0.341 µM) | > 4 µg/mL | > 4 µg/mL | > 4 µg/mL | > 4 µg/mL | 0.25 µg/mL | 0.06 µg/mL (≈ 0.0818 µM) | > 4 µg/mL | 0.25 µg/mL (≈ 0.341 µM) | <0.01 µg/mL | –
3 | CN(C)[C@@H]1C(O)=C(C(N)=O)C(=O)[C@@]2(O)C(O)=C3C(=O)c4c(O)cccc4[C@@](C)(O)[C@H]3C[C@@H]12 [Tetracycline] | 0.3 µg/mL (≈ 0.675 µM) | 0.06 µg/mL (≈ 0.135 µM) | > 4 µg/mL | 2 µg/mL (≈ 4.5 µM) | > 4 µg/mL | 1 µg/mL (≈ 2.25 µM) | 2 µg/mL | 1 µg/mL (≈ 2.25 µM) | > 4 µg/mL | 0.25 µg/mL (≈ 0.563 µM) | 0.5 µg/mL | –
